These results are taken from patent US20130261077A1 (priority 2012, published 2013).

For orientation: Kd means a measure of binding affinity in units of concentration. Low values mean tighter binding, high ones weaker binding.

Each structure is given as a SMILES string.

T1 sequence (P08191 22-177): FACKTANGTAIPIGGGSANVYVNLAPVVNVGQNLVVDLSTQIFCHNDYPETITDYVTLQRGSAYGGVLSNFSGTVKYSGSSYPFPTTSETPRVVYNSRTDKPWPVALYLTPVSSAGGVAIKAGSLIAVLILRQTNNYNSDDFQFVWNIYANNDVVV

The assay concerns the target T1, FimH-CRD (Escherichia coli, UniProt P08191).
T1 construct: The first 177 amino acids of the FimH protein; thrombin tag (printed as 'fusion protein with thrombin') (cleaved yes); made in house; host or cells: bacteria (pET21b plasmid)
Kind of assay: Competitive binding assay by fluorescence polarization, assay 2 (compounds prepared by robotics, plates frozen and thawed). As to the method:
The first 177 amino acids of the FimH protein were expressed as a fusion protein with thrombin in a pET21b plasmid in bacteria. This FimH protein sequence contains the carbohydrate recognition domain (CRD) and shall be termed FimH-CRD. Following bacterial expression of the protein, the FimH-CRD protein was purified to homogeneity and the thrombin tag removed by protease cleavage. A competitive binding assay by fluorescence polarization was performed using 5 nM of the Alexa 647 mannoside probe and 60 nM of the FimH-CRD. The samples are assayed in a low volume 384 well microtiter plate in a final volume of 20 μl. The final assay buffer conditions are the following, 50 mM Tris-Cl, ph 7.0, 100 mM NaCl, 1 mM EDTA, 5 mM β-mercaptoethanol, 0.05% BSA and 2.5% DMSO. Two assays are performed for FimH, termed assay 1 or assay 2. The assay conditions are the same for both assays except the following: assay 1 has compounds prepared by manual dilution in a serial dilution factor with 12-point dose response while assay 2 has compounds prepared by a robotics system also through a serial dilution factor (12 point dose response) and initially prepared in duplicate in 384 well-Corning polypropylene round bottom plates. The assay 2 plates have compound which is then frozen and must be thawed prior to use. Initially the Alexa 647 probe and the FimH-CRD are added to the assay buffer and then 0.5 μl of test compound (assay 1 or 2) between 0.4 nM to 75 μM final concentration are added (12 point titration with 3-fold serial dilution). Control wells for the Alexa 647 probe are prepared with the same conditions except for the addition of the FimH-CRD protein. Plates are then incubated for 5 hrs at room temperature in the dark and under humid conditions to prevent drying. Plates are read using the SpectraMax Paradigm multi-mode plate reader and the appropriate fluorescent polarization detection cartridge (Alexa-647).
Alexa 647 mannoside probe is prepared using the similar procedure reported for FAM mannoside (Han, Z. et. al., 2010, J. Med. Chem., 53, 4779) and is described in the scheme below.
To a blue colored stirred solution of (2S,3S,4S,5S,6R)-2-(4-aminobutoxy)-6-(hydroxymethyl)tetrahydropyran-3,4,5-triol (2.21 mg, 0.009 mmol) and the (2E)-2-[(2E,4E)-5-[3,3-dimethyl-5-sulfonato-1-(3-sulfonatopropyl)indol-1-ium-2-yl]penta-2,4-dienylidene]-3-[6-(2,5-dioxopyrrolidin-1-yl)oxy-6-oxo-hexyl]-3-methyl-1-(3-sulfonatopropyl)indoline-5-sulfonate (Potassium Ion (3)) (4.9 mg, 0.0044 mmol) in DMF (44 μL) is added Et3N (5.4 mg, 7.0 μL, 0.053 mmol) at RT. The solution is stirred at room temperature over night, concentrated, dissolved in water and purified on 12 g C-18 silica gel cartridge on Isolera system using acetonitrile in water (0 to 40%, 10 CV) and followed by lyophilization to afford Alexa 647 mannoside probe (3.3 mg, 34%) as deep blue solid.
The Kd values of the compounds are determined from dose response curves using twelve concentrations per compound in duplicate. Curves are fitted to data points using Fluorescence Polarization competitive displacement analysis, and Kds are interpolated from the resulting curves using GraphPad Prism software, version […] (GraphPad software Inc., San Diego, Calif., USA).
On the technique in general: Fluorescence polarisation rises when a labelled molecule tumbles more slowly, as on binding a larger partner.
In turn, `OC[C@H]1O[C@H](c2cccc(Oc3ncccn3)c2)[C@@H](O)[C@@H](O)[C@@H]1O` [Compound 256, (2R,3S,4R,5S,6R)-2-(hydroxymethyl)-6-(3-pyrimidin-2-yloxyphenyl)tetrahydropyran-3,4,5-triol] gave a Kd of 67.6 ± 21.8 nM. Turning to `CNC(=O)c1cc(C#Cc2cccc([C@H]3O[C@H](CO)[C@@H](O)[C@H](O)[C@@H]3O)c2)cc(C(=O)NC)c1` [Compound 85, N1,N3-Dimethyl-5-[2-[3-[(2R,3S,4R,5S,6R)-3,4,5-trihydroxy-6-(hydroxymethyl)tetrahydropyran-2-yl]phenyl]ethynyl]benzene-1,3-dicarboxamide], the Kd is < 5 nM.

Consider `OC[C@H]1O[C@H](c2cccc(Oc3nc4ccccc4s3)c2)[C@@H](O)[C@@H](O)[C@@H]1O` [Compound 253, (2R,3S,4R,5S,6R)-2-[3-(1,3-benzothiazol-2-yloxy)phenyl]-6-(hydroxymethyl)tetrahydropyran-3,4,5-triol], for which the dissociation constant (Kd) was < 5 nM. To `C#Cc1cccc([C@H]2O[C@H](CO)[C@@H](O)[C@H](O)[C@@H]2O)c1` [Compound 73, ((2R,3S,4R,5S,6R)-2-(3-Ethynylphenyl)-6-(hydroxymethyl)tetrahydropyran-3,4,5-triol)] belongs 33.8 ± 13.6 nM. In the case of `OC[C@H]1OC(c2cccc(OCCC3CCCCC3)c2)[C@@H](O)[C@@H](O)[C@@H]1O` (stereo partly shown) [Compound 216] it was 16.4 ± 5.2 nM. On to `CNC(=O)c1ccc(Oc2cc([C@H]3O[C@H](CO)[C@@H](O)[C@H](O)[C@@H]3O)ccc2OC)cc1` [Compound 187, 4-[2-methoxy-5-[(2R,3S,4R,5S,6R)-3,4,5-trihydroxy-6-(hydroxymethyl)tetrahydropyran-2-yl]phenoxy]-N-methyl-benzamide], for which the affinity, expressed as Kd, was 9.9 ± 1.9 nM. To `COC(=O)c1ccc(COc2cccc(C3O[C@H](CO)[C@@H](O)[C@H](O)[C@@H]3O)c2)cc1` (stereo partly shown) [Compound 211] belongs 8 ± 2.4 nM.

Consider `COC(=O)c1cccc(Cn2cc(-c3ccc([C@H]4O[C@H](CO)[C@@H](O)[C@H](O)[C@@H]4O)cc3)nn2)c1` [Compound 80, Methyl 3-[[4-[4-[(2R,3S,4R,5S,6R)-3,4,5-trihydroxy-6-(hydroxymethyl)tetrahydropyran-2-yl]phenyl]triazol-1-yl]methyl]benzoate], for which the Kd was determined as 12.3 ± 6.2 nM. `OC[C@H]1O[C@H](c2ccc3cc(-c4cc(Cl)cc(Cl)c4)ccc3c2)[C@@H](O)[C@@H](O)[C@@H]1O` [Compound 155, (2R,3S,4R,5S,6R)-2-[6-(3,5-dichlorophenyl)-2-naphthyl]-6-(hydroxymethyl)tetrahydropyran-3,4,5-triol] registered a Kd of 71.7 ± 2 nM. To `Cc1cnc(-c2ccc(-c3cccc([C@H]4O[C@H](CO)[C@@H](O)[C@H](O)[C@@H]4O)c3)cc2)o1` [Compound 117, (2R,3S,4R,5S,6R)-2-(hydroxymethyl)-6-[3-[4-(5-methyloxazol-2-yl)phenyl]phenyl]tetrahydropyran-3,4,5-triol] belongs 20.9 ± 6.7 nM; to `Cc1nnc(-c2ccc(-c3cccc([C@H]4O[C@H](CO)[C@@H](O)[C@H](O)[C@@H]4O)c3)nc2)o1` [Compound 183, (2R,3S,4R,5S,6R)-2-(hydroxymethyl)-6-(3-(5-(5-methyl-1,3,4-oxadiazol-2-yl)pyridin-2-yl)phenyl)tetrahydro-2H-pyran-3,4,5-triol], 24.8 ± 8.3 nM. Turning to `OC[C@H]1O[C@H](c2cccc(/C=C\c3cc(Cl)cc(Cl)c3)c2)[C@@H](O)[C@@H](O)[C@@H]1O` [Compound 137, (2R,3S,4R,5S,6R)-2-[3-[(Z)-2-(3,5-dichlorophenyl)vinyl]phenyl]-6-(hydroxymethyl)tetrahydropyran-3,4,5-triol], binding was characterised by a dissociation constant (Kd) of 29.9 ± 15.2 nM.

As to `CCc1c(-c2ccc(-c3nnc(C)o3)cc2)cccc1[C@H]1O[C@H](CO)[C@@H](O)[C@H](O)[C@@H]1O` [Compound 105, (2R,3S,4R,5S,6R)-2-[2-Ethyl-3-[4-(5-methyl-1,3,4-oxadiazol-2-yl)phenyl]phenyl]-6-(hydroxymethyl)tetrahydropyran-3,4,5-triol], binding was put at a Kd of 28.1 ± 3.9 nM. In the case of `OC[C@H]1O[C@H](c2cccc(-c3ccc4[nH]c(C(F)(F)F)nc4c3)c2)[C@@H](O)[C@@H](O)[C@@H]1O` [Compound 148, (2R,3S,4R,5S,6R)-2-(Hydroxymethyl)-6-[3-[2-(trifluoromethyl)-1H-benzimidazol-5-yl]phenyl]tetrahydropyran-3,4,5-triol] it was 25.1 ± 12 nM; in that of `CS(=O)(=O)c1ccc2[nH]c(-c3cccc([C@H]4O[C@H](CO)[C@@H](O)[C@H](O)[C@@H]4O)c3)nc2c1` [Compound 169], 25.7 ± 0.4 nM; in that of `OC[C@H]1OC(c2ccc(OCc3ccc4ccccc4c3)cc2)[C@@H](O)[C@@H](O)[C@@H]1O` (stereo partly shown) [Compound 244], 23.3 ± 1.1 nM.

The compound `Cc1nc(-c2ccc(-c3cccc([C@H]4O[C@H](CO)[C@@H](O)[C@H](O)[C@@H]4O)c3)cc2)cs1` [Compound 177] had a dissociation constant (Kd) of 12.1 ± 5.8 nM. Against the preceding compound, the Kd is about 1.9-fold lower. In the case of `OC[C@H]1O[C@H](c2ccc(F)c(O)c2)[C@@H](O)[C@@H](O)[C@@H]1O` [Compound 193, (2R,3S,4R,5S,6R)-2-(4-fluoro-3-hydroxy-phenyl)-6-(hydroxymethyl)tetrahydropyran-3,4,5-triol] it was 30.6 ± 1.1 nM; in that of `CCC#CCOc1ccc(C2O[C@H](CO)[C@@H](O)[C@H](O)[C@@H]2O)cc1` (stereo partly shown) [Compound 229], 33.1 ± 4 nM. To `O=[N+]([O-])c1ccc(Oc2cccc([C@H]3O[C@H](CO)[C@@H](O)[C@H](O)[C@@H]3O)c2)cn1` [Compound 257, (2R,3S,4R,5S,6R)-2-(hydroxymethyl)-6-[3-[(6-nitro-3-pyridyl)oxy]phenyl]tetrahydropyran-3,4,5-triol] belongs 19.2 ± 6.3 nM; to `COC(=O)c1cccc(COc2ccc(C3O[C@H](CO)[C@@H](O)[C@H](O)[C@@H]3O)cc2)c1` (stereo partly shown) [Compound 246], 23.6 ± 5.5 nM. To `Cc1nn(-c2ccccc2)nc1COc1cccc(C2O[C@H](CO)[C@@H](O)[C@H](O)[C@@H]2O)c1` (stereo partly shown) [Compound 221] belongs 8.2 ± 0.5 nM. The compound `OC[C@H]1OC(c2ccc(OCCc3cccc(F)c3)cc2)[C@@H](O)[C@@H](O)[C@@H]1O` (stereo partly shown) [Compound 238] came in with a Kd of 9.7 nM. As to `Cc1c(-c2cccc(S(C)(=O)=O)c2)cccc1[C@H]1O[C@H](CO)[C@@H](O)[C@H](O)[C@@H]1O` [Compound 110, (2R,3S,4R,5S,6R)-2-(Hydroxymethyl)-6-[2-methyl-3-(3-methylsulfonylphenyl)phenyl]tetrahydropyran-3,4,5-triol], the Kd turned out to be 28.9 ± 4.5 nM. To `COCCCOc1ccc(C2O[C@H](CO)[C@@H](O)[C@H](O)[C@@H]2O)cc1` (stereo partly shown) [Compound 233] belongs 10.3 ± 3.9 nM. To `OC[C@H]1O[C@H](c2cccc(-c3nc4c(C(F)(F)F)cccc4[nH]3)c2)[C@@H](O)[C@@H](O)[C@@H]1O` [Compound 171] belongs 32.1 ± 19.1 nM; to `CC(=O)c1ccc(Oc2cccc([C@H]3O[C@H](CO)[C@@H](O)[C@H](O)[C@@H]3O)c2)cc1` [Compound 186, 1-[4-[3-[(2R,3S,4R,5S,6R)-3,4,5-trihydroxy-6-(hydroxymethyl)tetrahydropyran-2-yl]phenoxy]phenyl]ethanone], 12.3 ± 8.9 nM. To `CNC(=O)c1ccc2[nH]c(-c3cccc([C@H]4O[C@H](CO)[C@@H](O)[C@H](O)[C@@H]4O)c3)nc2c1` [Compound 172, N-methyl-2-(3-((2R,3S,4R,5S,6R)-3,4,5-trihydroxy-6-(hydroxymethyl)tetrahydro-2H-pyran-2-yl)phenyl)-1H-benzo[d]imidazole-5-carboxamide] belongs 530 ± 714 nM.
